The values that follow come from patent US5273991A, “Imidazole-containing compositions and methods of use thereof analogs of distamycin” (Research Corporation Technologies, Inc., priority 1992, dated 1993).

Read-outs that look alike come from different tables or passages of the source.

The test system of test [1] is calf thymus DNA. As to the kind of experiment: UV-dialysis study (covalent retention on DNA). In kind it is binding. Particulars: 24 h incubation at room temperature; 20-26 hours dialysis; pH 7.1. The text has this:
The compounds of the present invention are useful as anticancer agents. Although the biological mechanism which results in anticancer activity is not fully understood, the compounds of the subject invention are capable of binding to the minor groove of double-stranded DNA and, unlike distamycin and netropsin, can tolerate GC-containing DNA. Accordingly, the DNA alkylating moiety of the compounds of the present invention can be directed to the minor groove of GC-containing regions of double-stranded DNA. One of ordinary skill in the art can determine the DNA alkylating ability of the compounds of the present invention by art-recognized methods. The formation of an irreversible adduct of DNA and a compound of the present invention is defined herein as a measure of the DNA alkylating ability of the subject compounds. The formation of an irreversible adduct can be determined by art-recognized methods. For example, a solution containing DNA and a compound of the present invention can be exhaustively dialyzed under conditions which allow unbound drug to pass out of the dialysis bag. The percentage of the compound which has been retained in the dialysis bag is considered to be covalently bound to the DNA, and is determined by comparing the UV absorption spectrum of the compound/DNA solution before and after exhaustive dialysis.
0.5 mL of 2A260 calf thymus DNA was diluted to 2 mL with 10 mM sodium phosphate and 0.25 mM EDTA buffer, pH 7.1. Four aliquots (3 μL each) of a 1 mM stock drug solution in distilled water were added to the DNA solution and a UV absorption spectrum (300-320) was recorded after each addition. The drug/DNA solution was incubated for 24 h at room temperature and another UV spectrum was recorded. The drug/DNA solution was then transferred into a dialysis bag and the dialysis bag was suspended in 30 mL of 10 mM sodium phosphate and 0.25 mM EDTA buffer, pH, 7.1, at room temperature. After 20-26 hours, the […] spectrum of 2 mL of the buffer outside the dialysis bag was recorded. The absorbance of the drug peak was converted to concentration by the Beer-Lambert equation, and the data was presented as percent initial concentration. Under these conditions, substantial amounts of Compounds 6 (55±5%), 7 (45±5%), 8 (85±5%) and 10 (100±5%) are retained in the dialysis bag, while only 29±5% of a formamido analog^1 is retained.

In test [2] the test system is human chronic myelogenous leukemic K562 cells. As to the kind of experiment: growth inhibition of K562 cells (MTT viability assay). In kind it is cell-based. Particulars: for IC50: Homo sapiens, K562, 1 hour drug exposure at 37° C., 5-6 days, MTT; for activity against the growth of K562 cells: in words. On the procedure:
The ability of the compounds of the present invention to inhibit the growth of human chronic myelogenous leukemic K562 cells was determined as follows.
The incubation was terminated by centrifugation (5 minutes, 300 g) and the cells washed once with drug-free medium.
Following the appropriate drug treatment, the cells were transferred to 96-well microtiter plates, 10^4 cells per well, 8 wells per sample. Plates were then kept in the dark at 37° C. in a humidified atmosphere containing 5% CO2. […] Following incubation of the plates of 5-6 days (to allow control cells to increase in the number by 10 fold) 20 μL of a 5 mg/mL solution of MTT in phosphate buffered saline was added to each well and the plates further incubated for 5 h. The plates were then centrifuged for 5 minutes at 300 g and the bulk of the medium pipetted from the cell pellet leaving 10-20 μL per well. 200 μL DMSO was added to each well and the samples agitated to ensure complete mixing. The optical density was then read at a wavelength of 550 nm on a Titertek Multiscan ELISA plate reader and the dose-response curve constructed.

Test [3] has as its system calf thymus DNA. Particulars: literature constant, read-out: KEtBr; cited from earlier work.
The subject of test [4] is T4 coliphage DNA. Particulars: literature constant, read-out: KEtBr; cited from earlier work.
The target in test [5] is poly(dAdT). Particulars: poly(dA.dT); literature constant; read-out: KEtBr (converted); cited from earlier work.
Test [6] deals with poly(dGdC). Particulars: poly(dG.dC); literature constant; read-out: KEtBr (converted); cited from earlier work.
Test [7] concerns minor groove of B-DNA. Particulars: cited from earlier work.
The subject of test [8] is calf thymus DNA. Nature of the test: ethidium displacement assay, calf thymus DNA. In kind it is binding. The text has this:
(§1) The ethidium displacement assay is based on the fact that ethidium binding to DNA causes a large (approximately 25 fold) florescence enhancement as a result of the hydrophobic environment surrounding the ethidium molecule. Displacement of ethidium results in decreased fluorescence, and thus binding constants of drugs to DNA can be estimated and compared by measuring the loss of fluorescence as a function of added drug. The drug concentration which produces 50% inhibition of florescence is approximately inversely proportional to the apparent binding constant.
(§2) The relative DNA binding constants (Kapp) of distamycin and Compounds 6-10 to calf thymus DNA, T4 coliphage DNA, poly(dAdT) and poly(dGdC) were determined using the ethidium displacement assay (Morgan et al., 1979). The Kapp of ethidium bromide (Debart et al., 1989) is included for comparison. 25 μL of a 2A260 DNA solution was added to 2 mL of ethidium bromide buffer (250 μL of 1.3 mM ethidium bromidestock, 314.9 mg Tris-HCl, 60.8 mg Tris base and 930/mg of Na2 EDTA.2H2 O in 250 ml H2 O) pH 7.4 and the maximum fluorescence was measured (excitation wavelength=546 nm, emission wavelength=600 nm) at ambient temperature.
(§3) DNA solutions of 2A260 were prepared as follows: T4 coliphage DNA: 10 units of DNA were dissolved in 1 mL of 10 mM sodium phosphate (pH 7.1) and 0.25 mM EDTA buffer to give a 10A260 solution. 0.3 mL of the stock solution were diluted to 1.5 mL with 10 mM sodium phosphate (pH 7.1) and 0.25 mM EDTA buffer to give a 2A260 solution. Calf thymus DNA: 100 units of DNA were dissolved in 5 mL of 10 mM sodium phosphate (pH 7.1) and 0.25 mM EDTA buffer to give a 20A260 solution. 1.5 mL of the stock solution were diluted to 15 mL with 10 mM sodium phosphate (pH 7.1) and 0.25 mM EDTA buffer to give a 2A260 solution. Poly(dA-dT) and Poly(dG-dC) DNA: 100 units of DNA were dissolved in 10 mL of 10 mM sodium phosphate pH 7.1) and 0.25 mM EDTA buffer to give a 10A260 solution. 3 mL of the stock solution were diluted to 15 mL with 10 mM sodium phosphate (pH 7.1) and 0.25 mM EDTA buffer to give a 2A260 solution.
(§4) Aliquots of 10 mM stock drug solution (1 mg of drug to be tested was dissolved with 1 mole equivalent of 0.1M HCl, and then diluted with appropriate volume of distilled water to make a 10 mM solution) were then added to the fluorescing solution and the florescence measured after each addition until a 50% reduction of fluorescence occurred. If the 10 mM stock solution lowered the % fluorescence too quickly, the stock solution was further diluted to 1 mM prior to titration. The apparent binding constant was then calculated from this equation: KEtBr [EtBr]=Kapp [drug], where [drug]=the concentration of drug at a 50% reduction of fluorescence and KEtBr [1×10^7 M^-1 for calf thymus and coliphage T4 DNA^18, 9.5×10^6 M^-1 for poly(dA.dT)^30, and 9.9×10^6 M^-1 for poly(dG.dC)^30 ] and [EtBr] were known. The concentration of ethidium bromide was 1.3 μM. The Kapp values are shown in Table I. In a separate experiment, the Kapp of Compound 5 for calf thymus DNA and poly[dGdC] were determined to be 0.3×10^5 M^-1 and 2.6×10^5 M^-1, respectively. The error in these measurements is ±[…].

The test system of test [9] is T4 coliphage DNA. Nature of the test: ethidium displacement assay, T4 coliphage DNA. In kind it is binding. Particulars: ± 0.02 × 10^5 M^-1, pH 7.4.
Excerpt: as §1
The apparent binding constants for T4 coliphage DNA are an indicator of the minor groove selectivity of the compounds of the present invention. The major groove of T4 coliphage DNA is blocked by α-glycosylation of the 5-hydroxymethylcytidine residues; therefore, the non-intercalating agents that bind to T4 coliphage DNA must interact in the minor groove [Lown (1982) Acc. Chem. Res., 15, 381].
as §2, §3, §4

Test [10] has as its target poly(dAdT). Nature of the test: ethidium displacement assay, poly(dAdT). The format is binding. Particulars: ± 0.02 × 10^5 M^-1, pH 7.4.
Excerpt: as §1, §2, §3, §4

For test [11], the target named is poly(dGdC). As to the kind of experiment: ethidium displacement assay, poly(dGdC). In kind it is binding.
Excerpt: as §1, §2, §3, §4

Usually IC50 stands for the concentration that inhibits the measured activity by half. `CN(C)CCNC(=O)c1nc(NC(=O)c2nc(NC(=O)c3nc(NC=O)cn3C)cn2C)cn1C` [Compound 15, N-(N',N'-dimethylaminoethyl)-1-methyl-4-{1-methyl-4-[4-formamido-2-methylimidazole-2-carboxamido]imidazole-2-carboxamido}imidazole-2-carboxamide]: the “retained in the dialysis bag (percent initial concentration)” value in test [1] is 29±5%. Further, in [2], the half-maximal inhibitory concentration (IC50) was > 500 µM and the “activity against the growth of K562 cells” value (from here on “activity against the growth”) is on record as “no activity”.

Take `CN(C)NC(=O)c1nc(NC(=O)c2nc(NC=O)cn2C)cn1C` [Compound 13]: in test [2], the concentration for half-maximal inhibition (IC50) is > 500 µM and the “activity against the growth” value is on record as “no activity”.

Take `CN(C)CCNC(=O)c1nc(NC(=O)c2nc(NC(=O)CCl)cn2C)cn1C` [Compound 11, N-(N',N'-dimethylaminoethyl)-1-methyl-4-[4-(chloroacetamido)-1-methylimidazole-2-carboxamido)imidazole-2-carboxamide]: the half-inhibitory concentration (IC50) in [2] came to 350 µM.

Compound `CN(C)CCNC(=O)c1nc(NC(=O)c2nc(NC(=O)CBr)cn2C)cn1C` [Compound 12, N-(N',N'-dimethylaminoethyl)-1-methyl-4-[4-(bromoacetamido)-1-methylimidazole-2-carboxamido]imidazole-2-carboxamide] yielded a concentration for half-maximal inhibition (IC50) in test [2] of 400 µM.

With `CN(C)CCNC(=O)c1nc(NC(=O)c2nc(NC=O)cn2C)cn1C` [Compound 14], in [2], the IC50 is > 500 µM and the “activity against the growth” value is recorded as “no activity”.

As to `CC[n+]1c(-c2ccccc2)c2cc(N)ccc2c2ccc(N)cc21` [EtBr, ethidium bromide], the Kd was 0.1 µM in test [3], 0.1 µM in [4], 0.105 µM in test [5] and 0.101 µM in test [6].

On to `Cn1cc(NC(=O)c2cc(NC(=O)CN=C(N)N)cn2C)cc1C(=O)NCCC(=N)N` [Netropsin, netropsin], for which the “specific nucleotide sequence bound / preferred” value in test [7] was “(AT)4”.

As for `Cn1cc(NC(=O)c2cc(NC(=O)c3cc(NC=O)cn3C)cn2C)cc1C(=O)NCCC(=N)N` [Distamycin, distamycin], the “Association constant Kapp” value worked out at 774000 M⁻¹ in test [8] (± 0.02 × 10^5 M^-1, pH 7.4); 640000 M⁻¹ in [9]; 3.48e+07 M⁻¹ in [10]; 203000 M⁻¹ in [11] (poly(dGdC), ± 0.02 × 10^5 M^-1, pH 7.4). Moreover, the “specific nucleotide sequence bound / preferred” value in test [7] is given as “(AT)5”.

For the compound `CN(C)NC(=O)c1nc(NC(=O)c2nc(NC(=O)c3ccc(N(CCCl)CCCl)cc3)cn2C)cn1C` [Compound 5, N-(N',N'-dimethylamino)-1-methyl-4-{4-[4,4-bis(2-chloroethyl)aminobenzamido]-1-methylimidazole-2-carboxamido}imidazole-2-carboxamide], the Kd was 33.3 µM in [8] (separate experiment, read-out: Kapp (converted)) and 3.85 µM in test [11] (poly[dGdC], separate experiment, read-out: Kapp (converted)).
